From patent publication US20070155764A1, “NOVEL SUBSTITUTED PYRIMIDINYLOXY UREAS USEFUL AS INHIBITORS OF PROTEIN KINASES” (KALYPSYS, INC., priority 2005, published 2007)

What was measured:
Assay type in all cases: biochemical
[1] = biological target: T1, human B-Raf protein kinase (Homo sapiens, UniProt P15056); experiment: In vitro B-Raf/Mek1 composite kinase assay; conditions: recombinant GST-tagged human B-Raf (Δ1-415) with inactive Mek1, 2 μM ATP
T1 construct: GST (N); purchased Upstate Inc. 14-530 (B-Raf); 14-420 (Mek1)
T1 sequence (P15056 416-766): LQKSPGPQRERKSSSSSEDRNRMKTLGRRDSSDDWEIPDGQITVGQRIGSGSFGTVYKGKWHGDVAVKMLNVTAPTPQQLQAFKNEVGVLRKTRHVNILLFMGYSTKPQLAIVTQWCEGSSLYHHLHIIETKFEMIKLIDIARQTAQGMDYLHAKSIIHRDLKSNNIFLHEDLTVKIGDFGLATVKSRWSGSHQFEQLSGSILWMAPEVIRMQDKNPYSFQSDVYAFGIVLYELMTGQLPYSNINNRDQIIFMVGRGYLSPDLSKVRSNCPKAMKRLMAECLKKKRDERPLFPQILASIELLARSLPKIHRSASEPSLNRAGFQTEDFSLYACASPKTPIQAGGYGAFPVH
Protocol: In Vitro B-Raf/Mek1 Composite Kinase Assay
2.5 μl of B-Raf kinase buffer (20 mM MOPS [pH 7.2], 25 mM sodium glycerophosphate, 2 mM EGTA [pH 8.0], 1 mM sodium orthovanadate, 1 mM dithiothreitol, 10 mM MgCl2, 0.03% Brij-35, 0.3 mg/ml bovine serum albumin) containing 1 ng of recombinant, N-terminal GST-tagged human B-Raf protein kinase (Δ1-415, Upstate Inc., cat. #14-530) is dispensed to wells of a 1536 multi-well white solid plate. 60 nl of 100× concentration of test compound in DMSO is dispensed to the well by passive pin transfer and incubated for 15 minutes at room temperature (approx. 22° C.). […] The assay plates are sealed and maintained in a humidified environment. After 2 hours, 2.5 μl of PKLight protein kinase assay reagent (Cambrex, cat. #LT07-501) is dispensed. After an additional 5 minute incubation at room temperature, luminescence activity is measured on a Molecular Devices Analyst multi-mode plate reader or other suitable plate reader. Kinase inhibition results in less ATP depletion, and therefore increased luminescence signal. Negative control activity is measured with DMSO lacking any test compound. The positive control is [N-(3-trifluoromethyl-4-chlorophenyl)-N′-(4-(2-methylcarbamoyl-pyridin-4-yl)oxyphenyl)urea], aka Bay 43-9006. Efficacy is measured as a percentage of positive control activity.

VEGFR2 kinase = biological target: T2, VEGFR2 kinase (Homo sapiens, UniProt P35968); experiment: In vitro VEGFR2 kinase assay; conditions: ADP Quest assay, poly Glu:Tyr substrate, 60 μM ATP
T2 construct: purchased Invitrogen Inc PV3660
T2 sequence (P35968 20-1356): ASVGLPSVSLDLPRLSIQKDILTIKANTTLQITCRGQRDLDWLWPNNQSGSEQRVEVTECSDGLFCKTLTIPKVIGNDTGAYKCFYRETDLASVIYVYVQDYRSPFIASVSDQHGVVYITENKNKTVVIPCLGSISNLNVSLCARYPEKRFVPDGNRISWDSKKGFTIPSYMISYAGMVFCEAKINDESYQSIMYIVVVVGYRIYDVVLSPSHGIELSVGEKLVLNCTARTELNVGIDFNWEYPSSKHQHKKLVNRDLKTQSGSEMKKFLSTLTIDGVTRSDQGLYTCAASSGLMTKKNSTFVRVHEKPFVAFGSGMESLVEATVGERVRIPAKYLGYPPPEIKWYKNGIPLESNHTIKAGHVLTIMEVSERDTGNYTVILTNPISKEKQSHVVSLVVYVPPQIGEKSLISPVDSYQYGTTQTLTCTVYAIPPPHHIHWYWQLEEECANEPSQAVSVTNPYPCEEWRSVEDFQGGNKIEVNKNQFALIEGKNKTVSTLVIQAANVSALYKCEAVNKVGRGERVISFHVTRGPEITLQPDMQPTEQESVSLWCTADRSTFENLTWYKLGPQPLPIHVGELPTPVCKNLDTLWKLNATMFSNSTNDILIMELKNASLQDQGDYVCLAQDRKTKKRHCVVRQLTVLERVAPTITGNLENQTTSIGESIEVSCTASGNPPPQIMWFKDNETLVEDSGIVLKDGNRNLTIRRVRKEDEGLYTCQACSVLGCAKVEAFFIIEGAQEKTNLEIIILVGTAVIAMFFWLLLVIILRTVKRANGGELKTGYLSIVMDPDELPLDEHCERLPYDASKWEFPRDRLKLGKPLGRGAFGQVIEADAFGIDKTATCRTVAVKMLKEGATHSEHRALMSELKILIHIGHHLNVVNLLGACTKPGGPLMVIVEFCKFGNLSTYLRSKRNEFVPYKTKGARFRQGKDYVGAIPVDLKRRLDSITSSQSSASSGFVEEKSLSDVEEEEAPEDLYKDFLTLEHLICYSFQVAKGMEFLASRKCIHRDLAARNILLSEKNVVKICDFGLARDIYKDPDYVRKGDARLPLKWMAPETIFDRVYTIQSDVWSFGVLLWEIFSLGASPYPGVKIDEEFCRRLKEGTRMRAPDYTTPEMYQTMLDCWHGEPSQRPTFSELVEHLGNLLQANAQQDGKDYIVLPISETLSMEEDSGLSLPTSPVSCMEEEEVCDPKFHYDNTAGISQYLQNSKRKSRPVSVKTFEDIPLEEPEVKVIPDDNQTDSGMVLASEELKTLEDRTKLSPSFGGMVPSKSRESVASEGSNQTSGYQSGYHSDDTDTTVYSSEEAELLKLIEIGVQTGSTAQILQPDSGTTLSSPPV
Protocol: (§1) In vitro vegfr2 and PDGFRβ Kinase Assays
(§2) 2.5 μl of ADP Quest assay buffer (DiscoverX Inc., cat. #90-0071) containing 20 ng VEGFR2 kinase (Invitrogen Inc, cat. #PV3660) or 25 ng PDGFRβ kinase (Invitrogen Inc., cat. #P3082) is dispensed to wells of a 1536 multi-well, black solid plate. 60 nl of 100× concentration of test compound in DMSO is dispensed to the well by passive pin transfer and incubated for 10 minutes at room temperature (approx. 22° C.). 2.5 μl of ADP Quest assay buffer containing 0.25 μg of poly Glu:Tyr (4:1) substrate peptide (Upstate Inc., cat. #12-440) and 60 μM ATP is then dispensed and the kinase reaction allowed to incubate at 30° C. for 2 hours. The assay plates are sealed and maintained in a humidified environment. After the 2 hour incubation, 2 μl of ADP Quest assay reagent A, followed by 2 μl of assay reagent B, is added. After an additional 30 minute incubation at room temperature, fluorescence intensity is measured on a Molecular Devices Aquest multi-mode plate reader or other suitable plate reader (fluorescence excitation filter: 530/25 [Peak (nm)/FWHM passband (nm)]; dichroic beamsplitter: 561 nm longpass; fluorescence emission filter: 580/10 [Peak (nm)/FWHM passband (nm)]. The assay measures the conversion of a non-fluoresecent molecule to fluorescent resorutin, which correlates with kinase activity. Negative control activity is measured with DMSO lacking any test compound. The positive control is [N-(3-trifluoromethyl-4-chlorophenyl)-N′-(4-(2-methylcarbamoyl-pyridin-4-yl)oxyphenyl)urea], aka Bay 43-9006. Efficacy is measured as a percentage of positive control activity.

PDGFRβ kinase = biological target: T3, PDGFRβ kinase (Homo sapiens, UniProt P09619); experiment: In vitro PDGFRβ kinase assay; conditions: ADP Quest assay, poly Glu:Tyr substrate, 60 μM ATP
T3 construct: purchased Invitrogen Inc. P3082
T3 sequence (P09619 33-1106): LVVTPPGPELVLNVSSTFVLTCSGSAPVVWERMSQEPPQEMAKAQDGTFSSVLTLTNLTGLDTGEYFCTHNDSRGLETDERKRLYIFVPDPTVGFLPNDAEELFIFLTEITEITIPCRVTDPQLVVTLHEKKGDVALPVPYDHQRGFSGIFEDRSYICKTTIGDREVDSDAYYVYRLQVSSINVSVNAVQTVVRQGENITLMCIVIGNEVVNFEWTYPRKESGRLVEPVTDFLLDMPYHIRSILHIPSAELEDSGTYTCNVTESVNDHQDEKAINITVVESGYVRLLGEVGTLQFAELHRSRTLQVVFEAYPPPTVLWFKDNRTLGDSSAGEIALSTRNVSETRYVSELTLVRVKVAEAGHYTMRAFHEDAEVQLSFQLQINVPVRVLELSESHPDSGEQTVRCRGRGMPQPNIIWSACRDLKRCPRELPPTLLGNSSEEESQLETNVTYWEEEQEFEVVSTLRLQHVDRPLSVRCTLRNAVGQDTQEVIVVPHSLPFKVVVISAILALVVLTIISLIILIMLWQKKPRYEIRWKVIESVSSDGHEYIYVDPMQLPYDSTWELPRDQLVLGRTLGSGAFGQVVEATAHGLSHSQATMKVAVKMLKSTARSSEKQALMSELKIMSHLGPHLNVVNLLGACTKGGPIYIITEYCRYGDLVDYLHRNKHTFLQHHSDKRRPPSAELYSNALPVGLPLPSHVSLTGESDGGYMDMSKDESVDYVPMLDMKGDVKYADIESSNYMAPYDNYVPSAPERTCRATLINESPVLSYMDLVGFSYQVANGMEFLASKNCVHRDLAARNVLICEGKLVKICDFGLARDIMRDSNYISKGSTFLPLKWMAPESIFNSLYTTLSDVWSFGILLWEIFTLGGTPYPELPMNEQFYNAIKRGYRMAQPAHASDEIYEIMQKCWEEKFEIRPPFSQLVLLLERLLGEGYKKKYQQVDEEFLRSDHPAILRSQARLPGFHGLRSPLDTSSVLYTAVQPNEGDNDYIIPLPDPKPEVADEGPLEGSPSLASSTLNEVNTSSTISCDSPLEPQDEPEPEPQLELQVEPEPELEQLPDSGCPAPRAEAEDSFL
Protocol: as §1, §2

| SMILES | IC50 [1] [µM] | IC50 (VEGFR2 kinase) [µM] | IC50 (PDGFRβ kinase) [µM] |
| --- | --- | --- | --- |
| O=C(Nc1ccc(Oc2ccnc(-n3cncn3)n2)cc1)Nc1ccc(Cl)c(C(F)(F)F)c1 [Example 2, 1-(4-Chloro-3-trifluoromethyl-phenyl)-3-[4-(2-[1,2,4]triazol-1-yl-pyrimidin-4-yloxy)-phenyl]-urea] | > 10 | > 10 | > 10 |
| O=C(Nc1ccc(Oc2cc(-c3ncon3)ncn2)cc1)Nc1ccc(Cl)c(C(F)(F)F)c1 [Example 3, 1-(4-Chloro-3-trifluoromethyl-phenyl)-3-[4-(6-[1,2,4]oxadiazol-3-yl-pyrimidin-4-yloxy)-phenyl]-urea] | > 10 | ≤ 10 | ≤ 10 |
| O=C(Nc1ccc(Oc2cc(-c3nnco3)ncn2)cc1)Nc1ccc(Cl)c(C(F)(F)F)c1 [Example 8, 1-(4-(6-(1,3,4-Oxadiazol-2-yl)pyrimidin-4-yloxy)phenyl)-3-(4-chloro-3-(trifluoromethyl)phenyl)urea] | ≤ 10 | ≤ 10 | ≤ 10 |
| O=C(Nc1cccc(Oc2cc(-c3ncon3)ncn2)c1)Nc1ccc(Cl)c(C(F)(F)F)c1 [Example 10, 1-(3-(6-(1,2,4-Oxadiazol-3-yl)pyrimidin-4-yloxy)phenyl)-3-(4-chloro-3-(trifluoromethyl)phenyl)urea] | ≤ 10 | ≤ 10 | ≤ 10 |
| O=C(Nc1cccc(Oc2ccnc(-c3nnco3)n2)c1)Nc1ccc(Cl)c(C(F)(F)F)c1 [Example 12, 1-(3-(2-(1,3,4-oxadiazol-2-yl)pyrimidin-4-yloxy)phenyl)-3-(4-chloro-3-(trifluoromethyl)phenyl)urea] | ≤ 10 | ≤ 10 | ≤ 10 |
| O=C(Nc1cccc(Oc2cc(-c3ncco3)ncn2)c1)Nc1ccc(Cl)c(C(F)(F)F)c1 [Example 14, 1-(4-chloro-3-(trifluoromethyl)phenyl)-3-(3-(6-(oxazol-2-yl)pyrimidin-4-yloxy)phenyl)urea] | ≤ 10 | ≤ 10 | ≤ 10 |
| Cn1ncnc1-c1cc(Oc2cccc(NC(=O)Nc3ccc(Cl)c(C(F)(F)F)c3)c2)ncn1 [Example 16, 1-(4-Chloro-3-(trifluoromethyl)phenyl)-3-(3-(6-(1-methyl-1H-1,2,4-triazol-5-yl)pyrimidin-4-yloxy)phenyl)urea] | ≤ 10 | ≤ 10 | ≤ 10 |
| O=C(Nc1cccc(Oc2cc(-c3ncn[nH]3)ncn2)c1)Nc1ccc(Cl)c(C(F)(F)F)c1 [Example 17, 1-(3-(6-(1H-1,2,4-Triazol-5-yl)pyrimidin-4-yloxy)phenyl)-3-(4-chloro-3-(trifluoromethyl)phenyl)urea] | ≤ 10 | ≤ 10 | ≤ 10 |
| O=C(Nc1cccc(Oc2cc(-c3nnn[nH]3)ncn2)c1)Nc1ccc(Cl)c(C(F)(F)F)c1 [Example 19, 1-(3-(6-(1H-Tetrazol-5-yl)pyrimidin-4-yloxy)phenyl)-3-(4-chloro-3-(trifluoromethyl)phenyl)urea] | > 10 | ≤ 10 | ≤ 10 |
| Cn1nnc(-c2cc(Oc3cccc(NC(=O)Nc4ccc(Cl)c(C(F)(F)F)c4)c3)ncn2)n1 [Example 20, 1-(4-Chloro-3-(trifluoromethyl)phenyl)-3-(3-(6-(2-methyl-2H-tetrazol-5-yl)pyrimidin-4-yloxy)phenyl)urea] | ≤ 10 | ≤ 10 | ≤ 10 |
| Cn1ncnc1-c1cc(Oc2ccc(NC(=O)Nc3ccc(Cl)c(C(F)(F)F)c3)cc2)ncn1 [Example 23, 1-(4-Chloro-3-(trifluoromethyl)phenyl)-3-(4-(6-(1-methyl-1H-1,2,4-triazol-5-yl)pyrimidin-4-yloxy)phenyl)urea] | ≤ 10 | ≤ 10 | ≤ 10 |

The next lines start with the values.

| IC50 [1] [µM] | IC50 (VEGFR2 kinase) [µM] | IC50 (PDGFRβ kinase) [µM] | SMILES |
| --- | --- | --- | --- |
| ≤ 10 | ≤ 10 | ≤ 10 | O=C(Nc1ccc(Oc2cc(-n3cncn3)ncn2)cc1)Nc1ccc(Cl)c(C(F)(F)F)c1 [Example 1, 1-(4-Chloro-3-trifluoromethyl-phenyl)-3-[4-(6-[1,2,4]triazol-1-yl-pyrimidin-4-yloxy)-phenyl]-urea] |
| ≤ 10 | ≤ 10 | > 10 | COc1cc(CNC(=O)Nc2cccc(Oc3ccnc(-c4nnco4)c3)c2)cc(OC)c1OC [Example 5, 1-[3-(2-[1,3,4]Oxadiazol-2-yl-pyridin-4-yloxy)-phenyl]-3-(3,4,5-trimethoxybenzyl)-urea] |
| ≤ 10 | > 10 | > 10 | Cc1cc(Oc2ccc(NC(=O)Nc3ccc(Cl)c(C(F)(F)F)c3)cc2)nc(-n2ccnc2)n1 [Example 6, 1-(4-(2-(1H-imidazol-1-yl)-6-methylpyrimidin-4-yloxy)phenyl)-3-(4-chloro-3-(trifluoromethyl)phenyl)urea] |
| > 10 | – | – | O=C(Nc1ccc(Oc2ccnc(-c3ncon3)n2)cc1)Nc1ccc(Cl)c(C(F)(F)F)c1 [Example 7, 1-(4-(2-(1,2,4-Oxadiazol-3-yl)pyrimidin-4-yloxy)phenyl)-3-(4-chloro-3-(trifluoromethyl)phenyl)urea] |
| ≤ 10 | ≤ 10 | ≤ 10 | O=C(Nc1cccc(Oc2cc(-c3nnco3)ncn2)c1)Nc1ccc(Cl)c(C(F)(F)F)c1 [Example 9, 1-(3-(6-(1,3,4-Oxadiazol-2-yl)pyrimidin-4-yloxy)phenyl)-3-(4-chloro-3-(trifluoromethyl)phenyl)urea] |
| ≤ 10 | ≤ 10 | ≤ 10 | Cc1nnc(-c2cc(Oc3cccc(NC(=O)Nc4ccc(Cl)c(C(F)(F)F)c4)c3)ncn2)o1 [Example 11, 1-(4-Chloro-3-(trifluoromethyl)phenyl)-3-(3-(6-(5-methyl-1,3,4-oxadiazol-2-yl)pyrimidin-4-yloxy)phenyl)urea] |
| ≤ 10 | ≤ 10 | ≤ 10 | O=C(Nc1ccc(Oc2cc(-c3ncco3)ncn2)cc1)Nc1ccc(Cl)c(C(F)(F)F)c1 [Example 13, 1-(4-Chloro-3-(trifluoromethyl)phenyl)-3-(4-(6-(oxazol-2-yl)pyrimidin-4-yloxy)phenyl)urea] |
| ≤ 10 | ≤ 10 | ≤ 10 | O=C(Nc1cccc(Oc2cc(-c3ncno3)ncn2)c1)Nc1ccc(Cl)c(C(F)(F)F)c1 [Example 15, 1-(3-(6-(1,2,4-oxadiazol-5-yl)pyrimidin-4-yloxy)phenyl)-3-(4-chloro-3-(trifluoromethyl)phenyl)urea] |
| > 10 | ≤ 10 | ≤ 10 | O=C(Nc1ccc(Oc2cc(-c3ncno3)ncn2)cc1)Nc1ccc(Cl)c(C(F)(F)F)c1 [Example 18, 1-(4-(6-(1,2,4-Oxadiazol-5-yl)pyrimidin-4-yloxy)phenyl)-3-(4-chloro-3-(trifluoromethyl)phenyl)urea] |
| ≤ 10 | ≤ 10 | ≤ 10 | Cn1nnnc1-c1cc(Oc2cccc(NC(=O)Nc3ccc(Cl)c(C(F)(F)F)c3)c2)ncn1 [Example 21, 1-(4-chloro-3-(trifluoromethyl)phenyl)-3-(3-(6-(1-methyl-1H-tetrazol-5-yl)pyrimidin-4-yloxy)phenyl)urea] |
| ≤ 10 | ≤ 10 | ≤ 10 | O=C(Nc1ccc(Oc2cc(-c3ncn[nH]3)ncn2)cc1)Nc1ccc(Cl)c(C(F)(F)F)c1 [Example 22, 1-(4-(6-(1H-1,2,4-Triazol-5-yl)pyrimidin-4-yloxy)phenyl)-3-(4-chloro-3-(trifluoromethyl)phenyl)urea] |
| ≤ 10 | ≤ 10 | – | NC(=O)Cn1cc(-c2cc(Oc3cccc(NC(=O)Nc4ccc(Cl)c(C(F)(F)F)c4)c3)ncn2)cn1 [Example 55, 2-(4-(6-(3-(3-(4-Chloro-3-(trifluoromethyl)phenyl)ureido)phenoxy)pyrimidin-4-yl)-1H-pyrazol-1-yl)acetamide] |
